From patent publication US20240093184A1, “CHEMICALLY REVERSIBLE 2`-OH ACYLATION PROTECTS RNA FROM HYDROLYTIC AND ENZYMATIC DEGRADATION” (The Board of Trustees of the Leland Stanford Junior …, priority 2022, published 2024)
Each block holds one compound with its values, some of them ahead of it.

What was measured:
EMX1-sgRNA [1] = assay: In vitro DNA cleavage function of CRISPR sgRNA; format: biochemical; conditions: Tris for DMG-cloaked sgRNA, DABCO for alkoxy acylimidazole-cloaked sgRNA; neutral pH, 11 hours
eGFP-mRNA [2] = assay: Accelerated RNA aging of cloaked eGFP-mRNA in RNase-free water at 37° C., capillary electrophoresis; format: physicochemical; conditions: for resistance of cloaked eGFP-mRNA to thermal degradation: equivalently cloaked (˜50% of unpaired accessible 2′-OH); for extension of lifespan of eGFP-mRNA: extensive cloaking (>90% of accessible 2′-hydroxyls)
Experimental: (§1) In this example, the capacity to use this RNA cloaking strategy to stabilize RNA in solution was assessed with accelerated RNA aging experiments by incubating eGFP-mRNA species with or without cloaking with NAIN3 ((2-(azidomethyl)pyridin-3-yl)(1H-imidazol-1-yl)methanone) in RNase-free water at a mildly elevated temperature (37° C.) (FIG. 1). We then evaluated the lifespan of the mRNA by measuring the relative fraction of remaining fully intact RNA over time. […] Acylation-induced stabilization was further tested on a second, longer mRNA. […] No depurination of adenosine and […] was observed during the span of degradation experiments (FIG. 2). See, for example, FIG. 1.
(§2) We screened these acylimidazole reagents for modulation of RNA thermal degradation by performing accelerated RNA aging experiments with eGFP-mRNA aliquots that were equivalently cloaked (˜50% of unpaired accessible 2′-OH). Representative CE data are shown in FIG. 1 for cloaked eGFP-mRNA, which resisted thermal degradation across broad substituent types. […] Noting subtle differences in the stabilization, we hypothesized that the varying protection afforded by the reagents might arise from differential hydrolytic stability of their adducts; this was later confirmed (see below). […] To compensate for this, more extensive cloaking by N,N-dimethylglycine (DMG) acylimidazole (>90% of unpaired accessible 2″-OH) extended the lifespan of eGFP-m RNA by ˜5-fold.

EMX1-sgRNA [3] = assay: Storage of cloaked EMX1-sgRNA in frozen RNase-free water (−80° C.); format: physicochemical; conditions: 9 months
Experimental: FIG. 4. Integrity of cloaked EMX1-sgRNA (105 nt) upon incubation in frozen RNase-free water after 9 months (−80° C.).
as §2

18nt model RNA = assay: Nucleophile screen for removal (uncloaking) of 2′-acyl adducts; format: physicochemical; conditions: for reversibility of acyl adducts by nucleophiles: 37° C., neutral pH
Excerpt: Nucleophiles are known to catalyze ester hydrolysis; examples include the use of imidazole and pyridine as nucleophilic catalysts. To restore biological activity of RNAs after cloaking-based stabilization, we tested uncloaking strategies to promote rapid hydrolysis of 2′-carboxyl esters with weakly basic nucleophiles (FIG. 5). […] In the library design, we avoided the use of strong Bronsted bases to prevent hydrolytic RNA backbone cleavage. Nucleophiles were screened against the 18nt model RNA containing acyl groups of each type at 37° C. and neutral pH, which identified at least 9 sensitive acylation-nucleophile pairs that promoted >50% removal of adducts within 2 hours. […] Other adducts can also be rapidly removed with designated nucleophiles, with half-lives for reversal ranging from 1.1 to 1.8 hours.
For 2′-acyl adduct by DMG, the effects of the biocompatible tris(hydroxymethyl) aminomethane (Tris) buffer alone were substantial, consistent with previous reports that Tris can hydrolyze active esters.

eGFP-mRNA [4] = assay: In vitro translation assay of cloaked and uncloaked eGFP-mRNA; format: biochemical
Excerpt: introduced into the coding region of mRNAs. Thus, we investigated whether Tris could restore the translation of a model eGFP-mRNA densely cloaked (50%) by DMG acylimidazole. […] To explore the generality of this observation, we applied the methods to an in vitro transcribed CRISPR sgRNA. Acylation of EMX1-sgRNA by other reagents blocked its cleavage function (<10%) in vitro.

RNase A = assay: Nucleolytic degradation of cloaked eGFP-mRNA by RNase A; format: biochemical
Excerpt: (§3) In this example, we systemically surveyed protective effects of cloaking with representative RNases and biofluids, recapitulating the common enzymatic conditions RNAs encounter during storage, handling, and application (FIG. 7). […] We next evaluated whether cloaking could ameliorate mRNA degradation in fetal bovine serum (FBS), a frequent component of eukaryotic cell culture (FIG. 8). […] This is likely due in part to DMG acylimidazole retaining RNA secondary structures and helicity for maximum resistance to RNases. Acylating reagents also protect eGFP-mRNA against FBS to varying degrees. […] Thus, 2′-acylation provides context-dependent protection of long RNA (e.g., mRNA) against ribonucleolytic enzymes. Reagent DMG acylimidazole effectively shields mRNA against a broad range of RNases.

RNase T1 = assay: Nucleolytic degradation of cloaked eGFP-mRNA by RNase T1; format: biochemical
Excerpt: as §3

[5] = Serum stability of cloaked EMX1-sgRNA; format: in vitro ADME; conditions: 105nt sgRNA
Excerpt: (§4) In this example, we systematically characterized how acylimidazoles affect enzymatic degradation of EMX1-sgRNA in serum, a 105nt single guide RNA (sgRNA) for CRISPR-Cas9 gene editing (FIG. 7). […] Among all reagents, DMG acylimidazole enhanced sgRNA stability the most, by up to 14-fold. […] Although such protection most likely extends to other RNAs, the secondary structures of RNA may influence the magnitude of enhancement in enzymatic stability. […] This is likely due in part to different RNA motifs having distinct “hotspots” for enzymatic degradation, which may not be completely shielded by cloaking. Taken together, 2′-acylation effectively enhances the serum stability of RNA, the magnitude of which may be influenced by the length and structure of the underlying RNA.

[6] = Serum stability of cloaked RNA motifs; format: in vitro ADME
Excerpt: as §4

SW480 = assay: Translation of cloaked eGFP-mRNA in SW480 cells; format: cell-based, human
HEK293 = assay: Translation of cloaked eGFP-mRNA in HEK293 cells; format: cell-based, human
HeLa cells [7] = assay: Translation of cloaked d2GFP-mRNA in HeLa cells; format: cell-based, human
Experimental: We therefore adopted a reporter system employing mRNA encoding a destabilized green fluorescent protein d2GFP, where both mRNA and protein degradation occur with similar half-lives of ˜2-3 hours. We observed that the translation of unprotected d2GFP-mRNA quickly descended after peaking. […] Taken together, RNA cloaking by DMG derivative DMG acylimidazole effectively extended d2GFP-mRNA functional lifespan and translation, providing insights for the potential use of reversible 2′-acylation as a modulator of mRNA translation kinetics.

Fluc-mRNA = assay: Accelerated RNA aging of cloaked Fluc-mRNA in water at 37° C.; format: physicochemical; conditions: extensive cloaking (>90% of unpaired 2′-hydroxyls), six days in water
Experimental: as §1

HeLa cells [8] = assay: Translation of cloaked eGFP-mRNA in transfected HeLa cells (flow cytometry, fluorescence imaging); format: cell-based, human; conditions: intermediately cloaked, over two days
Excerpt: Intact cells maintain high intracellular concentrations of nucleophilic species such as cysteine and glutathione. […] In this example, we employed cloaked mRNAs encoding fluorescent reporter proteins. Indeed, we observed the emergence of strong green fluorescence signals by flow cytometry over a period of two days in HeLa cells transfected with intermediately DMG-cloaked eGFP-mRNA. […] Moreover, the delayed translation of cloaked mRNAs reflects an initial uncloaking step, which when occurring over time may provide slow-release translation kinetics—reducing an early expression peak and extending the duration of translation (see below). Finally, we also observed that translation of eGFP-mRNA with alkoxyl acyl adduct can also be restored in cells, highlighting possible control over mRNA release kinetics by modification of the acyl group.

[9] = test system: mRNAs (TBP, PPIE, and PSMB6); conditions: HEK293 total RNA cloaked with DMG acylimidazole; Tris alone, neutral pH, 24 h
Experimental: For instance, the ability of a single 2′-acylation to halt reverse transcriptase during primer extension necessitates efficient 2′-deacylation to avoid premature reverse transcription termination. […] We isolated and cloaked total cellular RNA from HEK293 cells with DMG acylimidazole, and recovery efficiency was evaluated for three representative mRNAs by the reverse transcription efficiencies. […] Recent experiments have shown that local 2′-acylation can terminate translation when

Compound: C1CN2CCN1CC2 [DABCO, 1,4-diazabicyclo[2.2.2]octane]
- restoration of DNA cleavage of cloaked sgRNA (EMX1-sgRNA [1]): fully restored DNA cleavage

- extension of lifespan of eGFP-mRNA (eGFP-mRNA [2]; RNase-free water, 37° C.): ~5 fold
- stability of in vitro transcribed EMX1-sgRNA on storage (EMX1-sgRNA [3]): enhanced stability
- reversal of 2′-acyl adduct by Tris buffer alone (18nt model RNA): substantial
- protection of eGFP-mRNA from nucleolytic degradation by RNase A (RNase A): effectively shielded
- protection of eGFP-mRNA from nucleolytic degradation by RNase T1 (RNase T1): effectively shielded
- increase in serum stability of EMX1-sgRNA [5]: up to 14 fold
- serum stability of a bulge loop RNA motif ([6]; bulge loop): increases the serum stability
- serum stability of an internal loop motif ([6]; internal loop): minimal enhancement
- serum stability of a structurally complex pseudoknot ([6]; pseudoknot): increases the serum stability
Compound: CN(C)CC(=O)n1ccnc1 [DMG acylimidazole, N,N-dimethylglycine (DMG) acylimidazole]
- resistance of cloaked eGFP-mRNA to thermal degradation (eGFP-mRNA [2]): slightly reduced enhancement of RNA thermal stability
- translation of cloaked eGFP-mRNA in vitro (eGFP-mRNA [4]; eGFP-mRNA densely cloaked (50%)): strongly blocked the translation
- recovery of eGFP expression (SW480): confirmed generality
- recovery of eGFP expression (HEK293): confirmed generality
- enhancement of total protein output of d2GFP-mRNA (HeLa cells [7]; HeLa cells, versus unprotected d2GFP-mRNA): 31%
- duration of sustained d2GFP-mRNA translation at its peak level (HeLa cells [7]; intermediate cloaking, HeLa): ~10 h

- resistance of cloaked eGFP-mRNA to thermal degradation (eGFP-mRNA [2]): providing the most stability
Compound: CCOCC(=O)n1ccnc1 [ethoxyacetyl compound]

- resistance of cloaked eGFP-mRNA to thermal degradation (eGFP-mRNA [2]): attenuated RNA hydrolysis
- reversal of 2′-acyl adduct by Tris buffer alone (18nt model RNA): not reversed by Tris
Compound: CC(=O)n1ccnc1 [acetylimidazole]
- reversibility of acyl adducts by nucleophiles (18nt model RNA): relatively resistant to reversal by nonbasic nucleophiles

Compound: O=C(c1cccnc1)n1ccnc1 [nicotinic acid acylimidazole]
- reversibility of acyl adducts by nucleophiles (18nt model RNA): relatively resistant to reversal by nonbasic nucleophiles

- extension of lifespan of eGFP-mRNA (eGFP-mRNA [2]; RNase-free water, 37° C.): -7 fold
- extension of lifespan of intact eGFP-mRNA (eGFP-mRNA [2]; intermediate cloaking (˜50% of unpaired 2′-hydroxyls), RNase-free water, 37° C.): -3 fold
- reversibility of acyl adducts by nucleophiles (18nt model RNA): can be reversed via Staudinger reaction
Compound: [N-]=[N+]=NCc1ncccc1C(=O)n1ccnc1 [NAIN3, (2-(azidomethyl)pyridin-3-yl)(1H-imidazol-1-yl)methanone, reference compound]
- damage to the nucleobases (deamination of adenine and cytosine) (eGFP-mRNA [2]; within the timespan of the aging experiment): No damage to the nucleobases
- backbone cleavage of Fluc-mRNA (Fluc-mRNA): almost completely blocked backbone cleavage
- translation of cloaked eGFP-mRNA in cells (HeLa cells [8]): translation remained strongly inhibited

Compound: tris(hydroxymethyl)aminomethane
- recovery of reverse transcription of cloaked mRNAs [9]: reinstated the reverse transcription
- restoration of eGFP expression (eGFP-mRNA [4]; DMG acylimidazole-cloaked eGFP-mRNA, Tris, pH=7.5 at 37° C.): up to 87%
- restoration of DNA cleavage of cloaked sgRNA (EMX1-sgRNA [1]): fully restored DNA cleavage
